From article PMC12371494, “Discovery of YTHDF2 Ligands by Fragment-Based Design” (ACS Bio & Med Chem Au, 2025)
Read-outs that look alike come from different tables or passages of the source.

Key:
[1] = target: T1, GST-YTHDF2 (Homo sapiens, UniProt Q9Y5A9); experiment: HTRF-based binding assay, competition with m6A-oligoRNA, DF2; settings: for Single-dose residual signal at 100 µM, DF2: HTRF, 100 µM compound, normalized; for LE (ligand efficiency, DF2): LE = -RT ln IC50/HAC from HTRF IC50; for IC50: dose-response, competitor m6A-oligoRNA, read-out: DF2 IC50 (HTRF assay); for Improvement of HTRF IC50 compared to fragment 14: HTRF DF2
T1 construct: made in house
T1 sequence (Q9Y5A9 1-579): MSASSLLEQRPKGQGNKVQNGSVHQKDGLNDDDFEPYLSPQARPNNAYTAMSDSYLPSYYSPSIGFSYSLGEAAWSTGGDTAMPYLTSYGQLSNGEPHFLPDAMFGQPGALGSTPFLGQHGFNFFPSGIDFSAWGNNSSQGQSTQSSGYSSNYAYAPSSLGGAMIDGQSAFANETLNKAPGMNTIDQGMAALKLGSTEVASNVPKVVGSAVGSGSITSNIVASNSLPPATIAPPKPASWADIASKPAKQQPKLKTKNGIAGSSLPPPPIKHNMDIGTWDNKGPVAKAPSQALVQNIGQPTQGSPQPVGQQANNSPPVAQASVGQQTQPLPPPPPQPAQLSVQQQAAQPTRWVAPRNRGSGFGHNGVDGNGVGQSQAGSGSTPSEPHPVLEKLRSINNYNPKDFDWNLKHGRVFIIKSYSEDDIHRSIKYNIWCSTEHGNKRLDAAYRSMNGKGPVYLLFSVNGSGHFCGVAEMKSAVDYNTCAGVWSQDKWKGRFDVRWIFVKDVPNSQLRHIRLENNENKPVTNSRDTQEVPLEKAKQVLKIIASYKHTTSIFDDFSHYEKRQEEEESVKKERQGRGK

[2] = target: T2, GST-YTHDF3 (Homo sapiens, UniProt Q7Z739); experiment: HTRF-based binding assay, DF3; settings: for Single-dose residual signal at 100 µM, DF3: HTRF, 100 µM compound, normalized
T2 construct: made in house
T2 sequence (Q7Z739 1-585): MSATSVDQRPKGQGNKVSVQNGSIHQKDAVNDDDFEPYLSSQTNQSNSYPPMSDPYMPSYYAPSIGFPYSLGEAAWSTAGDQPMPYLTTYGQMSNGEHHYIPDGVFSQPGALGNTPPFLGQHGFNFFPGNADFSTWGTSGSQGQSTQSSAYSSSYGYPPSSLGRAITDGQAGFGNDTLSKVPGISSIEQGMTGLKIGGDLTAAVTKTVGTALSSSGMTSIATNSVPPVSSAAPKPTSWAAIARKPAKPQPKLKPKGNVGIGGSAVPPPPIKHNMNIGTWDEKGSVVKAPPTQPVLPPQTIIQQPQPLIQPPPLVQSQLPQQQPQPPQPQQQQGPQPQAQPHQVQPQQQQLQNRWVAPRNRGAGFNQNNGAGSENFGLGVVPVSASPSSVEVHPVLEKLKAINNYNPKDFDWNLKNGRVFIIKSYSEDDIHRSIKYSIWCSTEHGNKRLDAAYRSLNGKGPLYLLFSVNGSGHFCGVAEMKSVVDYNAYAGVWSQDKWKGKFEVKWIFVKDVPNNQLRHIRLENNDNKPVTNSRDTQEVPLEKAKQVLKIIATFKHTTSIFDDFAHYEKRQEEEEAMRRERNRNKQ
Procedure: The HTRF-based assay was employed to evaluate the selectivity of the series against other DF proteins.
A dose–response experiment on DF1 and DF3 was conducted for compounds 17, 18, 23, and 27 (Figure S5). Compounds 17, 18, and 27 are active on three DF proteins. […] In contrast, compound 23 is selective for DF2, with residual signals (at the highest employed concentration of 62.5 μM) of 51 and 87% for DF1 and DF3, respectively.
GST-YTHDC1, GST-YTHDF1, GST-YTHDF2, and GST-YTHDF3 were purified as previously reported. The HTRF assay was assembled as detailed in ref with the only difference being that the starting concentration of the dose–response experiments used for the IC50 determination was variated dependently from the tested compound. The same protocol was applied to the four proteins. The competitive inhibition data of GST-YTHDF1 (single dose experiment at 100 μM compound concentration and dose–response curves), GST-YTHDF3 (single dose experiment at 100 μM compound concentration and dose–response curves), and GST-YTHDF2 (single dose experiment at 100 μM compound concentration) were normalized as described in ref to mitigate interference. The signal was measured as described in ref .

[3] = target: T3, YTHDF2 (Homo sapiens, UniProt Q9Y5A9); experiment: DNA-fluorescence polarization (FP) competition assay, DF2; assay type: binding
T3 sequence (Q9Y5A9 1-579): T1 sequence (Q9Y5A9 1-579)
Procedure: An FP competition assay was used to further validate the binding of the compounds to DF2. The main difference with respect to a previously published FP assay is the use of an oligo-DNA as competitor ligand (see Materials and Methods section). […] These differences might originate from the varying conditions in the two assays, such as the competitor mRNA (5′-biotin-[…](m6A)-CUAAGCU-3′) in HTRF and DNA (5′-FAM-[…](m6A)-CTAAGCT-3′) in FP, the salt concentration (150 mM NaCl and 100 mM KF in HTRF, and 150 mM NaCl in FP), and the pH (7.5 in HTRF and 7.4 in FP). The FP-based assay was also employed to assess the selectivity against DC1 and DC2 (see Selectivity section).
For fluorescence polarization (FP) experiments, a 5′-fluorescein-labeled m^6A-DNA probe (5′-FAM-[…](m6A)-CTAAGCT-3′) was synthesized by Microsynth AG.
The final concentration of the fluorescein-labeled DNA was kept constant at 3 nM. For YTHDC2 measurements, the protein concentration was set to 25 nM, while for YTHDF2 measurements, it was set to 10 nM, and for YTHDC1, it was set at 15 nM. The compound concentration was serially diluted to obtain the dose–response curve. The competition experiments were conducted in a final volume of 20 μL in a buffer containing 20 mM Tris–HCl (pH 7.4), 150 mM NaCl, and 0.01% bovine serum albumin (BSA), using a 384-well black flat-bottomed microplate (Corning 3575).
After incubating the mixture for 1 h, the anisotropy values were measured using a Tecan SPARK plate reader with 485/20 nm excitation and 535/25 nm emission polarization filters, suitable for fluorescein, at 25 °C. To obtain the equilibrium dissociation constant (K d), the IC50 values were first derived by fitting a dose–response curve to the data using nonlinear regression analysis in GraphPad Prism. These IC50 values were then converted to K d by using the Cheng–Prusoff equation: Kd=IC50/1+[L]/Kdprobe
IC50 is the observed value from FP assay, [L] is the probe concentration used, and K d ^probe is the binding affinity of probe for the target.

[4] = Cheng-Prusoff from FP IC50, probe Kd 5 nM, two biological replicates

In the case of Cc1c(C(=O)NCCCC(=O)O)sc2[nH]c(=S)[nH]c(=O)c12 [Compound 25], the “Single-dose residual signal at 100 µM, DF2” value [1] is reported as 7%, the “LE (ligand efficiency, DF2)” value [1] is reported as 0.32 kcal/(mol HAC) and the IC50 [1] is reported as 14 µM. The “Single-dose residual signal at 100 µM, DF3” value [2] was 26% and the Kd [3] was 1.3 µM.
For Cc1c(-c2ccc([N+](=O)[O-])cc2)sc2[nH]c(=S)[nH]c(=O)c12 [Compound 26], the “Improvement of HTRF IC50 compared to fragment 14” value [1] was 3- to 4 fold, the “Single-dose residual signal at 100 µM, DF2” value [1] was 7% and the “LE (ligand efficiency, DF2)” value [1] was 0.35 kcal/(mol HAC). For the same molecule, the IC50 [1] was 4.9 µM, the “Single-dose residual signal at 100 µM, DF3” value [2] was 15% and the Kd [3] was 17 µM.
For Cc1c(-c2ccc(N)cc2)sc2[nH]c(=S)[nH]c(=O)c12 [Compound 27], the “Improvement of HTRF IC50 compared to fragment 14” value [1] was 3- to 4 fold, the “Single-dose residual signal at 100 µM, DF2” value [1] was 0% and the “LE (ligand efficiency, DF2)” value [1] was 0.39 kcal/(mol HAC). The IC50 [1] was 3.9 µM, the “Single-dose residual signal at 100 µM, DF3” value [2] was 5% and the IC50 ([2]; dose-response) was 50 µM. For the same molecule, the Kd [3] was 1.9 µM.
In the case of NC(=O)c1csc2[nH]c(=S)[nH]c(=O)c12 [Compound 31], the “Single-dose residual signal at 100 µM, DF2” value [1] is reported as 13%, the “LE (ligand efficiency, DF2)” value [1] is reported as 0.47 kcal/(mol HAC) and the IC50 [1] is reported as 14 µM. The “Single-dose residual signal at 100 µM, DF3” value [2] was 36% and the Kd [3] was 1.9 µM.
In the case of O=c1[nH]c(=S)[nH]c2scc(-c3ccc(Br)cc3)c12 [Compound S75], the “Single-dose residual signal at 100 µM, DF2” value [1] is reported as 4%, the IC50 [1] is reported as 27 µM and the “Single-dose residual signal at 100 µM, DF3” value [2] is reported as 8%. The Kd [3, 4] was 8.8 µM.
With COc1ccc(-c2csc3[nH]c(=S)[nH]c(=O)c23)cc1 [Compound S76] the “Single-dose residual signal at 100 µM, DF2” value [1] was 6%, the IC50 [1] was 24 µM and the “Single-dose residual signal at 100 µM, DF3” value [2] was 12%. It also gave a Kd [3, 4] of 11 µM.
O=c1[nH]c(=S)[nH]c2scc(C3CCCCC3)c12 [Compound S77] was tested, and the “Single-dose residual signal at 100 µM, DF2” value [1] was 12%, the IC50 [1] was 33 µM and the “Single-dose residual signal at 100 µM, DF3” value [2] was 35%. It also gave a Kd [3, 4] of 5.6 µM.
For O=c1[nH]c(=S)[nH]c2sc(Cc3ccccc3)cc12 [Compound S85], the “Single-dose residual signal at 100 µM, DF2” value [1] was 13%, the IC50 [1] was 33 µM and the “Single-dose residual signal at 100 µM, DF3” value [2] was 35%. For the same molecule, the Kd [3, 4] was 6.2 µM.
With CCOC(=O)c1csc2[nH]c(=S)[nH]c(=O)c12 [Compound S89] the “Single-dose residual signal at 100 µM, DF2” value [1] was 8%, the IC50 [1] was 62 µM and the “Single-dose residual signal at 100 µM, DF3” value [2] was 16%. For the same molecule, the Kd [3, 4] was 7.5 µM.
With O=C(O)c1csc2[nH]c(=S)[nH]c(=O)c12 [Compound S90] the “Single-dose residual signal at 100 µM, DF2” value [1] was 14%, the IC50 [1] was 60 µM and the “Single-dose residual signal at 100 µM, DF3” value [2] was 34%. The Kd [3, 4] was 10 µM.
